Measurements taken from PMC4147340, “Mode and specificity of binding of the small molecule GANT61 to GLI determines inhibition of GLI-DNA binding” (Oncotarget, 2014).

Key:
GLI1 (ΔGLI-DM) = biological target: T1, GLI1 (ΔGLI-DM) (Homo sapiens, UniProt P08151, E250A/E298A); test: SPR, ΔGLI-DM immobilized on Ni-NTA chip, GANT61 […] as analyte; format: binding
T1 sequence (P08151 234-388 E250A/E298A limits assumed): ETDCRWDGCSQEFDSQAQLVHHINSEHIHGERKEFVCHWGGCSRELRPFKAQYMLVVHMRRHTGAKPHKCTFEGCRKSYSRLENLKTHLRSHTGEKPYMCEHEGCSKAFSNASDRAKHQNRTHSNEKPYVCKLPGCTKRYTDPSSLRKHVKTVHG

GLI1 = biological target: T2, GLI1 (Homo sapiens, UniProt P08151); test: SPR (Biacore […]), GLI1 immobilized on CM5 chip, GANT61 […] as analyte; format: binding
T2 construct: Full length GLI1 (OriGene)
T2 sequence (P08151 1-1106): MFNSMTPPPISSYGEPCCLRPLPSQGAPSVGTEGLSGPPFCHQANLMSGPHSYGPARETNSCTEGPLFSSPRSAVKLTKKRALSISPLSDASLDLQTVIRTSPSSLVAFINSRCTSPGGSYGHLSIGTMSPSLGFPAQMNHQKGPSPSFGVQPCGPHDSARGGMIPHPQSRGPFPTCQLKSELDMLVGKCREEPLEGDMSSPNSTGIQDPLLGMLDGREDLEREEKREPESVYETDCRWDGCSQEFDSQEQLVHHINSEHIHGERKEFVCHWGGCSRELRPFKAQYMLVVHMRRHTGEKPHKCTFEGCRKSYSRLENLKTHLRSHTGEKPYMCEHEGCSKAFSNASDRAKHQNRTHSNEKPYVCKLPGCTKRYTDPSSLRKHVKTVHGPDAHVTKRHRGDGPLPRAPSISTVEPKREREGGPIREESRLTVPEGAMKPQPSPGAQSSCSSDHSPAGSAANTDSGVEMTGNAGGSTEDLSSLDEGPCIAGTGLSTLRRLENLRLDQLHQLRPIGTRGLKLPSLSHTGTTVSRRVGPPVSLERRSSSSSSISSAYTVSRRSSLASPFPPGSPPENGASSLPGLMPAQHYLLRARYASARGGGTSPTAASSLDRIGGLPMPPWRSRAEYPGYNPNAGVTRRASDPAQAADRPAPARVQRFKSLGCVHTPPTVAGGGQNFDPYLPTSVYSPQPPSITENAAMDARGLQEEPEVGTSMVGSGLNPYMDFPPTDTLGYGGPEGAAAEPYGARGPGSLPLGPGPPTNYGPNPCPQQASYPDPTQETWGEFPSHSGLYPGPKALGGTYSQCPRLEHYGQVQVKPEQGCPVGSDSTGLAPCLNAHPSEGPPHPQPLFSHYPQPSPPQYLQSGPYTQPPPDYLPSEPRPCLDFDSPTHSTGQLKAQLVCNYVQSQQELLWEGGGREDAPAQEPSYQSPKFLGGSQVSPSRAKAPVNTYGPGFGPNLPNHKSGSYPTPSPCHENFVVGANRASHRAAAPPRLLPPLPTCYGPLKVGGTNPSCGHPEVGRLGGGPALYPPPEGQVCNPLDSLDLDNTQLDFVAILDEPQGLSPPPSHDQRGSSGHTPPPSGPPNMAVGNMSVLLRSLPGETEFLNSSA

[1] = system: GLI1 (full length, GLI1-WT); test: SPR inhibition; conditions: Biacore 3000, HBS-P buffer, 20 ul/min, 3 min association, 5 min dissociation; pH, salt and temperature not stated
[2] = system: GLI1 (full length, GLI1-WT); test: SPR; conditions: Biacore 3000, HBS-P buffer, 20 ul/min, 3 min association, 5 min dissociation; pH, salt and temperature not stated

Kd (GLI1 (ΔGLI-DM))	Kd (GLI1)	Molecule	K half [1]	Kd [2]
26.1 µM	7.5 µM	CN(C)c1ccccc1CN1CCCN(Cc2ccccc2N(C)C)C1c1ccncc1 [GANT61]	–	–
–	–	biotinylated GLI1 DNA-binding sequence (21-mer)	3.2 µM	5.5 µM
